Results taken from patent US11643655B2, “Methods for intracellular delivery and enhanced gene targeting” (CITY OF HOPE, priority 2016, dated 2023).
Several values for one entry are separate records, joined by “and”; a condition that tells them apart may be missing. Equal values may be shown once. Entries after “also recorded” stand apart in the source; their conditions may differ. Read-outs that look alike come from different tables or passages of the source. l = locked nucleic acid (LNA); d = 2'-deoxy (DNA)

Legend:
[1] = oligonucleotides delivered by gymnosis; cited from earlier work
[2] = cited from earlier work
PKR = PKR expression by real-time PCR (cellular stress response) in HeLa-GFP-654 cells; type: cell-based, human
HeLa EGFP-654 cells [3] = assay: Cell growth and proliferation, SRB staining; settings: two days
HeLa EGFP-654 cells [4] = assay: SSO-654-mediated EGFP expression (splice switching) in HeLa EGFP-654 cells; flow cytometry, Western blot, microscopy; type: cell-based, human
[5] = test system: HeLa-EGFP-654 and LNCaP cells; type: cell-based, human
β-catenin = type: cell-based, human
BCL-2 = type: cell-based, human
[6] = cited from earlier work; remark: listed apart in the source
androgen receptor (AR) = assay: ASO silencing of AR protein expression, Western blot; type: cell-based, human; settings: LNCaP cells; for reduction in AR protein expression: three days
Experimental: Cells were harvested with trypsin digestion and washed once with PBS. Cell pellets were lysed in cold RIPA buffer containing protease inhibitors. Cellular RIPA lysates were sonicated for 2 seconds and then rested on ice for 5 min. Cell debris was removed by centrifugation at 12,000×g for 10 min at 4° C. Protein concentrations were determined using the Pierces BCA Protein Assay kit (Thermo Fisher Scientific, Waltham, Mass.). Aliquots of cell extracts containing 30-40 μg of protein were resolved by SDS-PAGE gel electrophoresis, and then transferred to PVDF membranes. After treatment with the appropriate primary and secondary antibodies, enhanced chemiluminescence was performed. Protein signals on the blot were quantified with the Image J program and protein expression was normalized to control=100%.
Protein expression was quantified with ImageJ.

AR mRNA = AR mRNA RT-PCR in LNCaP cells; type: cell-based, human; settings: 1 μM AR-ASO with 5 mM NH4^+, 24 hr, p<0.01
Experimental: Values were normalized to GAPDH mRNA expression and expressed as the mean±SD, n=3. **p<0.01, Students t-test.
RNA was extracted from cells using RNA-STAT 60 (AMS Biotechnology, Abingdon, UK) as recommended by the manufacturer. First-strand cDNA was synthesized with the Super-Script® III First-Strand Synthesis System Kit (Invitrogen, Carlsbad, Calif.). PCR was performed with Power SYBR GREEN PCR Master Mix (Thermo Fisher Scientific, Waltham, Mass.).

Malat-1 = type: cell-based, human
eGFP mRNA = type: cell-based, human
HeLa EGFP-654 cells [7] = test system: HeLa EGFP-654 cells
HDAC-2 mRNA = type: cell-based, human
CDR1 = type: cell-based, human

In the case of `CCC(=O)N1CC(=O)Nc2ccc(Br)cc2C1c1ccccc1` (stereo not drawn) [Retro-1], the “optimal concentration for enhancing SSO and ASO efficacy” value [1] is given as 50 to 100 µM and the water solubility [2] is given as “poorly water-soluble”.

In the case of `Cl.N` [NH4^+, Ammonium chloride], the “PKR activation / expression” value (PKR) is reported as “does not seem to activate the stress gene response”, the “effect on cell growth” value (HeLa EGFP-654 cells [3]; NH4^+ alone 1 mM-2 mM) is reported as “did not affect the growth” and the “inhibition of cell growth” value (HeLa EGFP-654 cells [3]; NH4^+ alone 5 mM, normalized to non-treated controls) is reported as “about 15%”. For the same compound, the “activity of lipofected SSO-654 (EGFP MFI)” value (HeLa EGFP-654 cells [4]) was “did not enhance the activity of the SSO-654”, the “increase of SSO-654-induced EGFP protein expression” value (HeLa EGFP-654 cells [4]) was “more than two-fold” and the “increase of SSO-654 function and EGFP expression compared to SSO-654 alone” value (HeLa EGFP-654 cells [4]) was “a minimum of five fold”. For the same compound, the “increase of percentage of EGFP positive cells and EGFP protein expression compared to SSO-654 alone” value (HeLa EGFP-654 cells [4]) was “nearly seven-fold”, the “increase of percentage of EGFP-positive cells, NH4^+/SSO-654 vs SSO-654” value (HeLa EGFP-654 cells [4]) was “nearly four-fold” and the “oligonucleotide (SSO) function, flow cytometry” value (HeLa EGFP-654 cells [4]) was “able to increase oligonucleotide function”. The “upregulation of SSO-654-mediated EGFP expression” value (HeLa EGFP-654 cells [4]) was “three- to five-fold”, the “cellular uptake of Cy5-ASO (Cy5 MFI)” value [5] was “did not significantly affect the cellular uptake” and the “increase of β-Cat-ASO efficacy” value (β-catenin) was “approximately two fold”.

In the case of “BCL2-ASO: Phosphorothioate LNA gapmer ASO targeting BCL-2, 5′-^mCTcccagcgtgcg^mC^mCa-3′ (SEQ ID NO: 3)”, the “BCL2 silencing (BCL-2 protein expression)” value (BCL-2) is reported as 65%, the BCL-2 protein expression (BCL-2) is reported as “nearly completely depleted BCL-2 protein expression; also recorded: Some silencing of the BCL-2 protein expression” and the “depletion of BCL-2 protein expression” value (BCL-2) is reported as 98% and 70%. For the same compound, the “effect of BCL2-ASO on SSO-654 activity and EGFP expression” value (HeLa EGFP-654 cells [4]) was “diminished” and the “effect of BCL2-ASO on SSO-654 function” value (HeLa EGFP-654 cells [4]) was “did not affect SSO-654 function”.

For `Nc1c(Br)cc(Br)cc1CN[C@H]1CC[C@H](O)CC1` [Ambroxol], the pKa [6] is listed as 9.1 and the “SSO-654 activity (EGFP MFI)” value (HeLa EGFP-654 cells [4]) is listed as “significantly enhanced SSO-654 activity”.

For `CCCCCCCC/C=C\CCCCCCCC(=O)O` [oleic acid], the “SSO-654 activity (EGFP MFI)” value (HeLa EGFP-654 cells [4]) was “significantly enhanced SSO-654 activity”.

With “β-Cat-ASO: Phosphorothioate LNA gapmer ASO targeting β-catenin, 5′-CCAtcttgtgatcCAT-3′ (SEQ ID NO: 5) (antisense CCATCTTGTGATCCAT; sugars from the 5' end l3 d10 l3, all phosphorothioate, methylation of C not given here)” the β-catenin gene expression (β-catenin) was “nearly eliminated β-catenin gene expression”.

With `O=C1Nc2cc(Br)ccc2/C1=C1/Nc2ccccc2/C1=N\O` [6BIO] the “frequency of splice switching (correctly spliced eGFP expression)” value (“frequency of splice switching” for short) (HeLa EGFP-654 cells [4]) was “increased frequency of splice switching”.

For “AR-ASO: Phosphorothioate LNA gapmer ASO targeting Androgen Receptor, 5′-ACCaagtttcttcAGC-3′ (SEQ ID NO: 6) (antisense ACCAAGTTTCTTCAGC; sugars from the 5' end l3 d10 l3, all phosphorothioate, methylation of C not given here)”, the “AR reduction, dose response” value (androgen receptor (AR); 0.25 μM AR-ASO with 5 mM NH4^+ vs 1 μM AR-ASO alone) was “greater AR reduction than 1 μM AR-ASO alone”, the “reduction in AR protein expression” value (androgen receptor (AR); 1 μM AR-ASO alone) was 40% and the “reduction in AR protein expression” value (androgen receptor (AR); 1 μM AR-ASO with 5 mM NH4^+) was 80%. The “inhibition of NH4^+ and SSO-654-mediated EGFP expression by a second ASO” value (HeLa EGFP-654 cells [4]) was “only slight or no inhibition” and the “reduction of AR mRNA expression compared with the AR-ASO alone” value (AR mRNA) was “about 40%”.

In the case of `OO` [H2O2, hydrogen peroxide], the “PKR activation / expression” value (PKR; oligonucleotide (SSO) combined with the treatment) is reported as “increasing PKR expression”, the “frequency of splice switching” value (HeLa EGFP-654 cells [4]) is reported as “increased frequency of splice switching” and the “oligonucleotide (SSO) function, flow cytometry” value (HeLa EGFP-654 cells [4]) is reported as “able to increase oligonucleotide function”.

For arsenic trioxide [As III], the “BCL2-ASO activity (BCL-2 protein)” value (BCL-2) was “did not significantly increase”, the “PKR activation / expression” value (PKR) was “PKR is activated” and the Malat-1 gene expression (Malat-1) was “silenced as a function of increasing As III concentrations”. For the same compound, the “cytoplasmic oligonucleotide function (eGFP mRNA silencing by ON-eGFP)” value (eGFP mRNA) was “some loss of oligonucleotide function”, the cell viability (HeLa EGFP-654 cells [7]) was “No significant changes” and the “frequency of splice switching” value (HeLa EGFP-654 cells [4]) was “increased frequency of splice switching”. The “upregulation of SSO-654-mediated EGFP expression” value (HeLa EGFP-654 cells [4]) was “three- to five-fold”, the “expression of HDAC-2 mRNA” value (HDAC-2 mRNA) was “did not significantly change” and the CDR-1 gene expression (CDR1) was “silenced as a function of increasing As III concentrations”. The “oligonucleotide uptake (Cy5-ON by gymnosis)” value [5] was “No significant changes” and the “β-Cat-ASO activity (β-catenin protein)” value (β-catenin) was “did not significantly increase”.

With `CC(=O)O.N` [ammonium acetate] the “effect on SSO-654-mediated EGFP expression compared with NH4^+” value (HeLa EGFP-654 cells [4]) was “comparable effects”.

With `NC1CCCCC1` [cyclohexylamine] the “SSO-654 activity (EGFP MFI)” value (HeLa EGFP-654 cells [4]) was “significantly enhanced SSO-654 activity”.
